This data set is described as follows: Randomized control study of daily topical application in women with low vitamin D. In kind it is in vivo, human. Conditions: 3 months. The method, then: A study was carried out on 50 women with low vitamin D. The women were healthy and unmarried. Age, weight, height, and detailed medical history were recorded. Meticulous clinical examination was performed to rule out any diseases. A complete blood picture, including serum calcium, phosphorous, alkaline phosphatase, Parathormone and 25 Hydroxy-vitamin D (25OHD), was obtained. Two women had >30 ng/mL of 25OHD and were excluded from the study. The 25-Hydroxy Vitamin D3 level was measured in house by chemiluminescence immunoassay (CLIA), and 30 ng/mL was taken as normal, 21-29 ng/mL as insufficiency and 20 ng/mL as deficiency.
The participants were divided into two groups of 24 women each. All participants unequivocally agreed not to change their dietary habits and life style until the study was over. The group of women participating in the study were asked to apply the topical composition with Vitamin D3. Each gram of the composition delivered 5000 IU of vitamin D3. The second group used 1 gram of aloe vera gel. The participants had no knowledge to which group they belong. A second blood sample was taken at the end of 3 months, and the data was entered in the database and analyzed using a t-test to compare means between the two groups for all the parameters tested before and after topical use of VD and AVG. […]

For `C=C1CC[C@H](O)C/C1=C/C=C1\CCC[C@]2(C)[C@@H]([C@H](C)CCCC(C)C)CC[C@@H]12` [Vitamin D3, cholecalciferol], the “safety of delivery through the dermal route” value is “can safely be delivered through the dermal route”.
